Each molecule was assayed on IL-6 (assay: Inhibition of IL-6 in LPS-stimulated human monocyte cells (THP-1), HTRF). Details: Homo sapiens; THP-1 cells, LPS 500 ng/mL, IL-6 by HTRF.
Type: cell-based
Method: Human Monocyte Cell Culture: A human monocyte cell line (THP-1 cells; Catalog #TIB-202, ATCC, Manassas, Va.) was cultured in Roswell Park Memorial Institute (RPMI) 1640 Medium (Catalog #21870-100, Buffalo, N.Y.) with 1% L-glutamine, 1% HEPES, 1% sodium pyruvate, 2% sodium bicarbonate supplemented with 100 units/mL penicillin, 50 μg/mL streptomycin, 2-mercaptoethanol (0.05 mM) [basal medium] and 10% fetal bovine serum (Catalog #16140089, Life Technologies, Carlsbad, Calif.) at 37° C. and 5% CO2.
Compound Screening: THP-1 cells were cultured in basal media with 1% FBS for 24 hours before the start of the assay. Each compound of Formula (I) was dissolved in DMSO as a 10 mM stock and used to prepare compound source plates. Serial dilution (1:3, 10-point dose-response curves starting from 10 μM) and compound transfer was performed using the ECHO 550 (Labcyte, Sunnyvale, Calif.) into 384-well white low volume assay plates (Greiner Bio-One) with appropriate DMSO backfill for a final DMSO concentration of 0.1%. THP-1 cells were plated at 5000 cells/well in the 384-well plates and incubated at 37° C. for 2 h. 500 ng/mL of LPS was added after 2 hours and cells were incubated for another 22 hours at 37° C. Plates were spun in a centrifuge for 1 minute at 10,000 rpm and a mixture of anti-IL-6 XL665, and anti-IL-6 Cryptate diluted in reconstitution buffer (Cisbio Inc.) was added to each well. Following incubation for 3 hrs at room temperature, homogeneous time-resolved fluorescence (HTRF) was measured using the Envision (Perkin Elmer) at 665 nm and […]. The ratio of fluorescence at 665 nm to 620 nm was used as a readout for IL-6 quantification. All samples were processed in duplicate. Readings were normalized to DMSO treated cells and normalized activities were utilized for EC50 calculations using the dose-response log (inhibitor) vs. response -variable slope (four parameters) nonlinear regression feature available in GraphPad Prism 5.0 (or Dotmatics). For EC50 of >10 μM, the percent inhibition at 10 μM is provided.

Row | SMILES | EC50 [nM]
1 | CC(C)CC(=O)Nc1cncc(-c2ccc3[nH]nc(-c4nc5c(N6CCN(C)CC6)cncc5[nH]4)c3c2)c1 [Compound 1] | 451
2 | CC(C)C(=O)Nc1cncc(-c2ccc3[nH]nc(-c4nc5c(N6CCN(C)CC6)cncc5[nH]4)c3c2)c1 [Compound 2] | 290
3 | CN(C)Cc1cncc(-c2ccc3[nH]nc(-c4nc5c(N6CCN(C)CC6)cncc5[nH]4)c3c2)c1 [Compound 3] | 273
4 | CN1CCN(c2cncc3[nH]c(-c4n[nH]c5ccc(-c6cncc(N7CCOCC7)c6)cc45)nc23)CC1 [Compound 5] | 349
5 | c1cncc(-c2ccc3[nH]nc(-c4nc5c(N6CCOCC6)cncc5[nH]4)c3c2)c1 [Compound 6] | 232
6 | CN1CCN(c2cncc(-c3ccc4[nH]nc(-c5nc6ccncc6[nH]5)c4c3)c2)CC1 [Compound 7] | 2430
7 | CC(C)C(=O)Nc1cncc(-c2ccc3[nH]nc(-c4nc5ccncc5[nH]4)c3c2)c1 [Compound 9] | 2260
8 | CN(C)Cc1cncc(-c2ccc3[nH]nc(-c4nc5c(-c6cncc(F)c6)cncc5[nH]4)c3c2)c1 [Compound 16] | 134
9 | O=C(Nc1cncc(-c2ccc3[nH]nc(-c4nc5c(-c6ccc(F)cc6)cncc5[nH]4)c3c2)c1)c1ccccc1 [Compound 104] | 7240
10 | Fc1ccccc1-c1cncc2[nH]c(-c3n[nH]c4ccc(-c5cncc(CN6CCCCC6)c5)cc34)nc12 [Compound 127] | 138
11 | Cc1ccncc1-c1ccc2[nH]nc(-c3nc4c(-c5ccncc5)cncc4[nH]3)c2c1 [Compound 154] | 188
12 | c1cc(-c2cncc3[nH]c(-c4n[nH]c5ccc(-c6cncc(CN7CCCC7)c6)cc45)nc23)ccn1 [Compound 163] | > 10000
13 | c1cc(-c2cncc3[nH]c(-c4n[nH]c5ccc(-c6cncc(CN7CCCCC7)c6)cc45)nc23)ccn1 [Compound 164] | 433
14 | O=C(Nc1cncc(-c2ccc3[nH]nc(-c4nc5c(-c6ccncc6)cncc5[nH]4)c3c2)c1)C1CCCC1 [Compound 170] | 4690
15 | c1cc(-c2cncc3[nH]c(-c4n[nH]c5ccc(-c6cncc(CNCC7CCCC7)c6)cc45)nc23)ccn1 [Compound 173] | > 10000
16 | CN(C)Cc1cncc(-c2ccc3[nH]nc(-c4nc5c(-c6ccccn6)cncc5[nH]4)c3c2)c1 [Compound 186] | 1180
17 | Cc1ccncc1-c1ccc2[nH]nc(-c3nc4c(N5CCCCC5)cncc4[nH]3)c2c1 [Compound 202] | 1220
18 | c1ncc(-c2ccc3[nH]nc(-c4nc5c(N6CCCCC6)cncc5[nH]4)c3c2)cc1CN1CCCC1 [Compound 211] | 311
19 | CN1CCN(c2cncc3[nH]c(-c4n[nH]c5ccc(-c6cncc(N)c6)cc45)nc23)CC1 [Compound 247] | 474
20 | CN1CCN(c2cncc3[nH]c(-c4n[nH]c5ccc(-c6cncc(NC(=O)Cc7ccccc7)c6)cc45)nc23)CC1 [Compound 252] | 750
21 | CN1CCN(c2cncc3[nH]c(-c4n[nH]c5ccc(-c6cncc(NC(=O)C7CC7)c6)cc45)nc23)CC1 [Compound 260] | 295
22 | CN1CCN(c2cncc3[nH]c(-c4n[nH]c5ccc(-c6cncc(NC(=O)C7CCCCC7)c6)cc45)nc23)CC1 [Compound 263] | 224
23 | Nc1cncc(-c2ccc3[nH]nc(-c4nc5ccncc5[nH]4)c3c2)c1 [Compound 268] | > 10000
24 | O=C(Cc1ccccc1)Nc1cncc(-c2ccc3[nH]nc(-c4nc5ccncc5[nH]4)c3c2)c1 [Compound 274] | > 10000
25 | O=C(Nc1cncc(-c2ccc3[nH]nc(-c4nc5ccncc5[nH]4)c3c2)c1)c1ccccc1 [Compound 275] | > 10000
26 | CC(C)(C)CC(=O)Nc1cncc(-c2ccc3[nH]nc(-c4nc5ccncc5[nH]4)c3c2)c1 [Compound 280] | 731
27 | O=C(Nc1cncc(-c2ccc3[nH]nc(-c4nc5ccncc5[nH]4)c3c2)c1)C1CC1 [Compound 283] | > 10000
28 | O=C(Nc1cncc(-c2ccc3[nH]nc(-c4nc5ccncc5[nH]4)c3c2)c1)C1CCCCC1 [Compound 286] | 827
29 | CN(C)Cc1cncc(-c2ccc3[nH]nc(-c4nc5c(-c6ccsc6)cncc5[nH]4)c3c2)c1 [Compound 301] | 127
30 | c1cc(-c2cncc3[nH]c(-c4n[nH]c5ccc(-c6cncc(CN7CCCCC7)c6)cc45)nc23)cs1 [Compound 303] | 1010

Now from value to molecule:

Row | EC50 [nM] | SMILES
31 | 33 | CC(C)CC(=O)Nc1cncc(-c2ccc3[nH]nc(-c4nc5c(-c6ccccc6F)cncc5[nH]4)c3c2)c1 [Compound 11]
32 | 45 | CC(C)CC(=O)Nc1cncc(-c2ccc3[nH]nc(-c4nc5c(-c6ccc(F)cc6)cncc5[nH]4)c3c2)c1 [Compound 12]
33 | 23 | Fc1cccc(-c2cncc3[nH]c(-c4n[nH]c5ccc(-c6cccnc6)cc45)nc23)c1 [Compound 15]
34 | 15 | CCC(=O)Nc1cncc(-c2ccc3[nH]nc(-c4nc5c(-c6cncc(F)c6)cncc5[nH]4)c3c2)c1 [Compound 20]
35 | 19 | CCC(=O)Nc1cncc(-c2ccc3[nH]nc(-c4nc5c(-c6cccc(F)c6)cncc5[nH]4)c3c2)c1 [Compound 24]
36 | 14 | CC(C)C(=O)Nc1cncc(-c2ccc3[nH]nc(-c4nc5c(-c6ccccc6F)cncc5[nH]4)c3c2)c1 [Compound 31]
37 | 42 | O=C(Cc1ccccc1)Nc1cncc(-c2ccc3[nH]nc(-c4nc5c(-c6cccc(F)c6)cncc5[nH]4)c3c2)c1 [Compound 86]
38 | 44 | CN(C)Cc1cncc(-c2ccc3[nH]nc(-c4nc5c(-c6cccc(F)c6)cncc5[nH]4)c3c2)c1 [Compound 89]
39 | 42 | CC(C)(C)CC(=O)Nc1cncc(-c2ccc3[nH]nc(-c4nc5c(-c6cccc(F)c6)cncc5[nH]4)c3c2)c1 [Compound 90]
40 | 19 | O=C(Nc1cncc(-c2ccc3[nH]nc(-c4nc5c(-c6cccc(F)c6)cncc5[nH]4)c3c2)c1)C1CC1 [Compound 91]
41 | 19 | O=C(Nc1cncc(-c2ccc3[nH]nc(-c4nc5c(-c6cccc(F)c6)cncc5[nH]4)c3c2)c1)C1CCCCC1 [Compound 94]
42 | 122 | Nc1cncc(-c2ccc3[nH]nc(-c4nc5c(-c6ccc(F)cc6)cncc5[nH]4)c3c2)c1 [Compound 97]
43 | 40 | Cc1ccncc1-c1ccc2[nH]nc(-c3nc4c(-c5ccc(F)cc5)cncc4[nH]3)c2c1 [Compound 99]
44 | 53 | CC(C)(C)C(=O)Nc1cncc(-c2ccc3[nH]nc(-c4nc5c(-c6ccc(F)cc6)cncc5[nH]4)c3c2)c1 [Compound 102]
45 | 75 | Fc1ccc(-c2cncc3[nH]c(-c4n[nH]c5ccc(-c6cncc(CN7CCCC7)c6)cc45)nc23)cc1 [Compound 107]
46 | 50 | O=C(Nc1cncc(-c2ccc3[nH]nc(-c4nc5c(-c6ccc(F)cc6)cncc5[nH]4)c3c2)c1)C1CCC1 [Compound 111]
47 | 47 | CC(C)Nc1cncc(-c2ccc3[nH]nc(-c4nc5c(-c6ccccc6F)cncc5[nH]4)c3c2)c1 [Compound 124]
48 | 125 | c1cncc(-c2ccc3[nH]nc(-c4nc5c(-c6cccnc6)cncc5[nH]4)c3c2)c1 [Compound 136]
49 | 16 | CCC(=O)Nc1cncc(-c2ccc3[nH]nc(-c4nc5c(-c6ccccn6)cncc5[nH]4)c3c2)c1 [Compound 174]
50 | 30 | c1ccc(-c2cncc3[nH]c(-c4n[nH]c5ccc(-c6cccnc6)cc45)nc23)nc1 [Compound 177]
51 | 103 | CC(C)CC(=O)Nc1cncc(-c2ccc3[nH]nc(-c4nc5c(N6CCCCC6)cncc5[nH]4)c3c2)c1 [Compound 199]
52 | 16 | CC(C)(C)C(=O)Nc1cncc(-c2ccc3[nH]nc(-c4nc5c(N6CCCCC6)cncc5[nH]4)c3c2)c1 [Compound 205]
53 | 59 | CCCC(=O)Nc1cncc(-c2ccc3[nH]nc(-c4nc5c(N6CCCCC6)cncc5[nH]4)c3c2)c1 [Compound 214]
54 | 14 | O=C(Nc1cncc(-c2ccc3[nH]nc(-c4nc5c(N6CCCCC6)cncc5[nH]4)c3c2)c1)C1CCC1 [Compound 217]
55 | 97 | CN1CCN(c2cncc3[nH]c(-c4n[nH]c5ccc(-c6cncc(NC(=O)CC(C)(C)C)c6)cc45)nc23)CC1 [Compound 257]
56 | 16 | CCC(=O)Nc1cncc(-c2ccc3[nH]nc(-c4nc5c(-c6ccsc6)cncc5[nH]4)c3c2)c1 [Compound 289]
57 | 11 | Nc1cncc(-c2ccc3[nH]nc(-c4nc5c(-c6ccsc6)cncc5[nH]4)c3c2)c1 [Compound 291]
58 | 58 | Cc1ccncc1-c1ccc2[nH]nc(-c3nc4c(-c5ccsc5)cncc4[nH]3)c2c1 [Compound 293]
59 | 47 | CN(C)c1cncc(-c2ccc3[nH]nc(-c4nc5c(-c6ccsc6)cncc5[nH]4)c3c2)c1 [Compound 295]

Same assay, conditions: THP-1 cells, LPS-stimulated; dose-response starting from 10 μM

Row | SMILES | percent inhibition of IL-6 at 10 μM
60 | c1cc(-c2cncc3[nH]c(-c4n[nH]c5ccc(-c6cncc(CN7CCCC7)c6)cc45)nc23)ccn1 [Compound 163] | (30.0%)
61 | c1cc(-c2cncc3[nH]c(-c4n[nH]c5ccc(-c6cncc(CNCC7CCCC7)c6)cc45)nc23)ccn1 [Compound 173] | (11.7%)
62 | Nc1cncc(-c2ccc3[nH]nc(-c4nc5ccncc5[nH]4)c3c2)c1 [Compound 268] | (27.6%)
63 | O=C(Cc1ccccc1)Nc1cncc(-c2ccc3[nH]nc(-c4nc5ccncc5[nH]4)c3c2)c1 [Compound 274] | (24.1%)
64 | O=C(Nc1cncc(-c2ccc3[nH]nc(-c4nc5ccncc5[nH]4)c3c2)c1)c1ccccc1 [Compound 275] | (9.9%)
65 | O=C(Nc1cncc(-c2ccc3[nH]nc(-c4nc5ccncc5[nH]4)c3c2)c1)C1CC1 [Compound 283] | (50.7%)
